Results taken from patent US9308210B2, “Method for modulating canonical Wnt pathway using folate and inositol” (University of South Florida, priority 2009, dated 2016).
Structures can show the parent of a compound that is named as a salt.

How the values were obtained:
[1] = system: Wnt pathway-associated and lipid metabolism genes; assay: Affymetrix microarray of E15.5 embryonic heart tissue after Li+ or HCys exposure with or without FA; type: in vivo, mouse
Text: The inbred C57B16 mouse strain (Jackson Laboratories, Bar Harbor, Me.) was used throughout this study. It has become recognized that mouse strains can differ in their response to environmental factors (Andrikopoulos et al., 2005; Barnabei et al., 2010; Funkat et al., 2004). Thus, the mouse strain being used should be taken into consideration when comparing different studies. Morning of detection of the vaginal sperm plug was defined as embryonic day (E) 0.5. Timed-pregnant mice were randomly allocated to receive intraperitoneally (i.p.) either a single dose of 100 μl of 6.25 mg/ml of lithium chloride (Li+), as previously determined (Chen et al., 2008), 100 μl of 75 μM HCys (Han et al., 2009), or 100 μl of 0.9% physiological saline (control group). […]
As in the previous studies, animal chow was supplemented with 10.5 mg/kg folic acid (FA), a concentration that has been used in trial human population studies (Czeizel et al., 2013; Han et al., 2009). […] On ED 6.75 (at 5:30 PM) experimental pregnant females received Li+ or HCys by an i.p. injection that the inventors reported induces a high incidence of valve and heart defects as detected by echocardiography at mid-gestation on ED 15.5 (Han et al., 2009).
The inventors analyzed for gene misexpression in the embryonic heart on E15.5 of gestation, i.e., over a week after the acute exposures. […]

C57BL/6 mouse embryos = settings: in vivo
[2] = seven years after FA fortification; Quebec, Canada; cited from earlier work
E15.5 mouse hearts = assay: Histology of HCy-exposed E15.5 mouse hearts; type: in vivo; settings: single HCy exposure on E6.75
Experimental: Li- and HCy-exposed embryos, and control NaCl-exposed embryos, were fixed in 4% paraformaldehyde in phosphate buffered saline (PBS, pH 7.4) and paraffin sectioned. Sections were stained with hematoxylin-eosin, and some were stained with Toluidine Blue, and examined. Cardiac regions were analyzed for the presence of any obvious malformations using a Nikon SMZ1500 fluorescent stereomicroscope, and digitized images were obtained using a Nikon DS-L2 camera unit.
Malformed and small aortic valves (AoV in H) and pulmonary valves (PV in I) were apparent. […] This was exemplified by a post-stenotic dilatation of the pulmonary artery, apparent in FIG. 12L. […] In summary, in addition to the general cardiac hypertrophy, the viable cardiac anomalies that were observed on E15.5 following a single HCy exposure on E6.75 related primarily to derivatives of the SHF, that is the outflow, the right ventricle, and the tricuspid and SL valves.

[3] = system: Medium-Chain Acyl CoA Dehydrogenase (MCAD) protein; assay: Immunostaining of MCAD protein in E15.5 hearts; type: in vivo, mouse; settings: E15.5 heart; versus control
Experimental: Li+-, and HCys-, and control, NaCl-exposed, embryos were fixed in 4% paraformaldehyde in PBS, paraffin embedded, and sectioned. Sections were immunostained with MCAD antibodies (Sigma, St. Louis, Mo.) for the protein product of Acadm gene expression. Primary antibody localization was visualized with Cy3-secondary antibodies. Localization of gene and protein expression was analyzed with a Nikon Optiphot II phase microscope (Nikon Instruments, Inc., Melville, N.Y.). Digitized images were obtained with a Nikon DS-L2 Camera unit.

| SMILES | changes in lipid metabolism gene expression with high FA supplementation ([1]; Li or HCys exposure, FA 10.5 mg/kg diet) | DAPI (C57BL/6 mouse embryos) | DVPI (C57BL/6 mouse embryos) | E/A Ratio (C57BL/6 mouse embryos) | HR (C57BL/6 mouse embryos) | ICT % (C57BL/6 mouse embryos) | IRT % (C57BL/6 mouse embryos) | MPI (C57BL/6 mouse embryos) | OF (C57BL/6 mouse embryos) | RR (C57BL/6 mouse embryos) | UAPI (C57BL/6 mouse embryos) | yearly decrease in the prevalence of severe heart defects [2] | cardiac pathology on E15.5 (E15.5 mouse hearts) | Wnt pathway-associated gene expression ([1]; E15.5 hearts after acute exposure at E6.75) | MCAD protein [3] |
| --- | --- | --- | --- | --- | --- | --- | --- | --- | --- | --- | --- | --- | --- | --- | --- |
| Nc1nc2ncc(CNc3ccc(C(=O)N[C@@H](CCC(=O)O)C(=O)O)cc3)nc2c(=O)[nH]1 [FA, folic acid] | prevented | 1.82 | 1.04 | 0.28 | 191 bpm | 7.32% | 12.82% | 0.50 | 34.30 cm/s | 314 ms | 1.71 | 6% | – | – | – |
| N[C@H]1CCSC1=O [HCy, L-homocysteine thiolactone hydrochloride] | – | – | – | – | – | – | – | – | – | – | – | – | right and left side cardiac hypertrophy | significantly misexpressed | increased |
